The nature of this data set: Pharmacokinetics in mice (plasma, LC-MS/MS). The format is in vivo, mouse. To be noted: 25 mg/kg; for MRT: read-out: MRT (mean residence time). As for the experimental part: The peptide of formula (I) and the peptide of formula (II) were analyzed in mouse EDTA plasma using a validated assay involving trypsin proteolysis and the subsequent analysis of a signature peptide (SEQ ID NO: 3) by liquid chromatography-tandem mass spectrometry (LC-MS/MS). The working solution of unlabeled peptide (SEQ ID NO: 3, 1 mM) was serially diluted in water to obtain 7 standard solutions ranging 0.05-5 μM. Plasma and standard samples (40 μL) were reduced, alkylated and trypsin-digested overnight using the ready-to-use solutions of the ProteinWorks™ eXpress kit (Waters Corporation, Milford, Mass., USA), according to the manufacturer's instructions (except trypsin incubation time optimized to 7 h). The working solution of the labeled proteotypic peptide ([SEQ ID NO: 4]-[^13C6, ^15N4]-K, 1 mM) was used as internal standard (IS) and added to the digestion buffer to a final concentration of 0.5 μM. After digestion, samples were cleaned using 30 mg Oasis HLB 1 cc Cartridges (Waters Corporation). Cartridges were conditioned, equilibrated, loaded, washed and eluted with methanol (1 mL), water (1 mL), samples (˜200 μL), 5% methanol containing 0.1% TFA (1 mL) and 60% methanol containing 0.1% TFA (1 mL), respectively. Eluates were dried under a nitrogen stream, reconstituted with 100 μL of 10% acetonitrile containing 0.1% formic acid, and 10 μL were injected into the LC-MS/MS system. LC-MS/MS analyses were performed on a Xevo® TQD mass spectrometer with an electrospray (ESI) interface and an Acquity H-Class® UPLC™ device (Waters Corporation). Proteotypic peptides were separated over 9 min on an Acquity® BEH C18 column (2.1×100 mm, 1.7 μm, Waters Corporation) held at 60° C. with a linear gradient of mobile phase B (100% acetonitrile) in mobile phase A (5% acetonitrile), each containing 0.1% formic acid, and at a flow rate of 600 μL/min. […] Proteotypic peptides were then detected by the mass spectrometer with the ESI interface operating in the positive ion mode (capillary voltage, 3 kV; desolvatation gas (N2) flow and temperature, 900 L/h and 400° C.; source temperature, 150° C.). The multiple reaction monitoring mode was applied for MS/MS detection (SEQ ID NO: 3, m/z 368.8→536.5, y6^+; [SEQ ID NO: 4]-[^13C6, ^15N4]-K, m/z 372.8→544.4, y6) with cone and collision voltages set at 20 and 14 V, respectively. Data acquisition and analyses were performed with MassLynx® and TargetLynx® software, respectively (version 4.1, Waters Corporation). Chromatographic peak area ratio between unlabeled peptide and IS constituted the detector responses. Standard solutions were used to plot calibration curves for peptide quantification. The linearity was expressed by the mean r^2 which was greater than 0.998 (linear regression, 1/x weighting, origin excluded). […] The peptide of formula (I) and the peptide of formula (II) concentrations were expressed in μM assuming 1 mole of peptide equivalent to 1 mole of the peptide of formula (I) and the peptide of formula (II), respectively. Concentrations were then converted to their standard unit (ng/mL) assuming molecular weights of 3540 Da and 3917 Da for the peptide of formula (I) and the peptide of formula (II), respectively.
Wild-type C57B/L6J male mice were purchased from Janvier Labs (Le Genest Saint Isle, France). Mice were caged in animal rooms under specific pathogen free conditions at the animal facility of Rangueil (Anexplo platform, US006, Toulouse, France) with a light/dark schedule of 12 h/12 h and were fed ad libitum with a normal chow diet (#V1535 R/M-H, Ssniff, Germany). All animal experimental procedures were conducted in accordance with institutional guidelines on animal experimentation approved by the local ethical committee of animal care and are conformed to the guidelines from Directive 2010/63/EU of the European Parliament on the protection of animals used for scientific purposes or the NIH guideline. […]

Setting [1] is: male, C57B/L6J, mouse, plasma, sc.
Where [2] appears, read: male, C57B/L6J, mouse, plasma, sc, sc.
Setting [3] is: male, C57B/L6J, mouse, plasma, sc, sc, read-out: t1/2lbd1 (distribution half-life) (converted).
Where [4] appears, read: male, C57B/L6J, mouse, plasma, sc, sc, read-out: t1/2lbdz (elimination half-life) (converted).

Where two headings read alike, the source gives them in different places. Peptide text beside a SMILES is read from it. * marks the point of attachment. Palmitoyl = CCCCCCCCCCCCCCCC(=O)*

The text below walks through data of patent publication US20230050846A1, “TREATMENT OF HEPATIC AND CARDIOVASCULAR DISORDERS” (LIFESEARCH, priority 2019, published 2023).

As usually defined, the AUC is concentration integrated over time. Higher therefore signals high exposure. By MRT is commonly meant the average time that molecules of a dose stay in the body. The clearance is a measure of how efficiently the substance is removed, as volume per time. The term Vd denotes the apparent volume that relates the amount in the body to the concentration in plasma or blood. The term Cmax denotes the maximum level reached in the sampled fluid or tissue. As usually defined, the Tmax is the time at which the peak concentration occurs.

The molecule “Ac-RGAGSIREAGGAFGKREQAEEERYFRAQSRE-NH2 [peptide of formula (I), CH3CO-[SEQ ID NO: 1]-NH2]” had an AUC (male, C57B/L6J, mouse, plasma, iv) of 13300 ng·h/mL and an AUC under setting [1] of 6140 ng·h/mL. In addition, the MRT was 8.4 min (male, C57B/L6J, mouse, plasma, iv, iv) and 33 min under setting [2]. Further, the half-life is, setting by setting: (male, C57B/L6J, mouse, plasma, iv, iv, read-out: t1/2lbd1 (distribution half-life) (converted)) 3.6 min; (male, C57B/L6J, mouse, plasma, iv, iv, read-out: t1/2lbdz (elimination half-life) (converted)) 15.6 min; under setting [3], 11.4 min; under setting [4], 12.6 min. Further, the clearance (male, C57B/L6J, mouse, plasma, iv, read-out: Cl (total plasma clearance) (converted)) is 31.7 mL/min/kg. The volume of distribution (Vd) (male, C57B/L6J, mouse, plasma, iv, read-out: Vd (volume of distribution)) was 0.7 L/kg. Besides, under setting [1], the peak level (Cmax) was 8290 ng/mL. Further, the time of peak concentration (Tmax) under setting [1] amounted to 0.25 h. Also, under “sc”, the “Vd (volume of distribution)” value turned out to be 0.5 L/kg.
Consider `CCCCCCCCCCCCCCCC(=O)NCCCC[C@H](NC(=O)[C@H](CCC(=O)O)NC(=O)[C@H](CCCNC(=N)N)NC(=O)[C@H](CO)NC(=O)[C@H](CCC(N)=O)NC(=O)[C@H](C)NC(=O)[C@H](CCCNC(=N)N)NC(=O)[C@H](Cc1ccccc1)NC(=O)[C@H](Cc1ccc(O)cc1)NC(=O)[C@H](CCCNC(=N)N)NC(=O)[C@H](CCC(=O)O)NC(=O)[C@H](CCC(=O)O)NC(=O)[C@H](CCC(=O)O)NC(=O)[C@H](C)NC(=O)[C@H](CCC(N)=O)NC(=O)[C@H](CCC(=O)O)NC(=O)[C@H](CCCNC(=N)N)NC(=O)[C@H](CCCCN)NC(=O)CNC(=O)[C@H](Cc1ccccc1)NC(=O)[C@H](C)NC(=O)CNC(=O)CNC(=O)[C@H](C)NC(=O)[C@H](CCC(=O)O)NC(=O)[C@H](CCCNC(=N)N)NC(=O)[C@@H](NC(=O)[C@H](CO)NC(=O)CNC(=O)[C@H](C)NC(=O)CNC(=O)[C@H](CCCNC(=N)N)NC(C)=O)[C@@H](C)CC)C(N)=O` [peptide of formula (II), CH3CO-[SEQ ID NO: 1]-K-[palmitoyl]-NH2] (Ac-RGAGSIREAGGAFGKREQAEEERYFRAQSREK(Palmitoyl)-NH2), for which, under setting [1], the AUC was determined as 211000 ng·h/mL, the highest level (Cmax) was 25600 ng/mL and the Tmax was 4 h. Moreover, the MRT under setting [2] amounted to 349 min. Further, the half-life under setting [3] was 125 min. Moreover, under setting [4], the half-life is 752 min. For the setting “sc”, the “Cl (total plasma clearance)” value is listed as 0.05 L/h/kg and the “Vd (volume of distribution)” value is given as 1 L/kg.
